Measured values taken from US20180133148A1, “Degradable Microparticles for Protein and Small Molecule Delivery” (Georgia Tech Research Corporation, priority 2016, published 2018).

Key:
[1] = FTY720 loading and release from degradable heparin-based MPs (plate reader); type: physicochemical
Description: FTY720 was loaded onto degradable heparin-based MPs. The amount of FTY720 that was loaded onto the MPs was then assayed via plate reader. In three separate groups, additional amounts of FTY720, i.e. 5 μg, 10 μg and 20 μg, were then added. […] For each of the three separate groups, the extent of FTY720 release was assayed via plate reader each day over 7 days. […] The black line refers to the batch with 20 μg added. The dark blue line refers to the batch with 10 μg added. The light blue line refers to the batch with 5 μg added.

plasmin = assay: Plasmin inhibition assay (TSG-6 anti-plasmin activity); type: biochemical
Description: To assess TSG-6 bioactivity after release from MPs, the plasmin inhibition assay protocol was followed with day 1 TSG-6 release supernatant (11 ng/mL) and compared to a soluble TSG-6 control at the same concentration (11 ng/mL); n=3-5.
Without wishing to be bound by theory, it may be that the sulfate groups removed, the N sulfate group for Hep^−N and the N and […] for Hep−, are necessary for complete heparin binding to TSG-6 and the subsequent enhancement of TSG-6 bioactivity.

[2] = test system: articular cartilage of the medial tibial plateau; assay: EPIC-μCT of tibial articular cartilage, medial meniscal transection model; type: in vivo, Sprague-Dawley rats
articular cartilage = assay: Safranin-O histology of tibiae, medial meniscal transection model; type: in vivo, Sprague-Dawley rats; conditions: 3 weeks following MMT injury
Source text: Medial meniscal transection (MMT) injury was induced using a similar method to previously established protocols. Willett N. J. et al., Arthritis Res Ther. 2014; 16(1):R47. Male Sprague-Dawley rats (250-300 g initial weight and 8-10 weeks old) were used in accordance with protocols approved by the Georgia Institute of Technology Institutional Animal Care and Use Committee. Prior to surgery animals were anesthetized by 5% isoflurane (Isothesia), followed by 2-3% isoflurane during surgery and were administered sustained release buprenorphine as an analgesic. Next, a small incision was made through the skin on the medial aspect of the left femoral-tibial joint. The medial collateral ligament was exposed by blunt dissection and transected to visualize the joint space and medial meniscus. The meniscus was then transected completely at its narrowest point. The skin was sutured with 4.0 silk sutures (Ethicon) and then closed using wound clips.
For TSG-6 loaded MP treatment, MPs were loaded as described above but 3.6 mg MPs were resuspended in a total volume of 50 μL sterile 0.1 wt % BSA PBS solution and subsequently loaded into sterile syringes. 1, 7, and 15 days following MMT injury, MPs were delivered via intra-articular injection through the infrapatellar ligament and into the stifle joint of the left leg. For soluble TSG-6 controls, 16.7 μg TSG-6 was dissolved in a total volume of 50 μL sterile 0.1 wt % BSA PBS solution, loaded into sterile syringes, and delivered using the same method as TSG-6 loaded MPs. Overall, in vivo experimental groups included TSG-6 loaded MPs (18 μg TSG-6 loaded onto 10.8 mg MPs delivered over 3 time points; n=3), soluble TSG-6 (50 μg TSG-6 delivered over 3 time points; n=3) or injury only (no TSG-6 or MPs; n=4). Contralateral tibiae served as uninjured controls.
Following μCT, tibiae were decalcified in Cal-Ex II (Fisher) for 10 days, then processed for histology sectioning as described previously. Tellier L. E. et al. Localized SDF-1 Delivery Increases Pro-Healing Bone Marrow-Derived Cells in the Supraspinatus Muscle Following Severe Rotator Cuff Injury. […]

[3] = TSG-6 with soluble heparin derivative, or TSG-6 alone
[4] = 21 days following MMT injury, compared to uninjured control

For CCCCCCCCc1ccc(CCC(N)(CO)CO)cc1 [FTY720], the “Loading efficiency of FTY720” value ([1]; of the originally added amount of FTY720, 5, 10, 20 μg added) was 35-80% and the “Total amount of FTY720 released from MPs” value ([1]; over 7 days, dependent on amount originally added) was 0.5 to 5 µg.
In the case of “fully desulfated heparin [Hep−, reference compound]”, the “Plasmin activity compared to plasmin control” value (plasmin; [3]) is reported as 69.6±1.2% and the “Effect on TSG-6 anti-plasmin activity compared to TSG-6 alone” value (plasmin; soluble heparin derivatives, in words) is reported as “no significant effect”.
In the case of “soluble TSG-6: human TNF-α-stimulated gene-6, positively charged 35 kDa protein (R&D Systems)”, the “Plasmin activity compared to plasmin control” value (plasmin; [3]) is reported as 74.6±0.2%, the “Plasmin activity compared to plasmin control” value (plasmin; day 1 release supernatant or soluble control, 11 ng/mL TSG-6) is reported as 96.4±3.1% and the “Cartilage fibrillation (contrast-enhanced μCT imaging)” value ([2]; 3 weeks following MMT injury) is reported as “cartilage fibrillation is present”. It also gave a Cartilage attenuation [2, 4] of 1.6±0.2 ×, a Cartilage thickness [2, 4] of 1.5±0.2 × and a Cartilage volume [2, 4] of 1.9±0.5 ×. The “Improvement of cartilage degeneration following injury” value (articular cartilage) was “unable to improve cartilage degeneration”, the “Proteoglycan loss (Safranin-O stained sections)” value (articular cartilage) was “proteoglycan loss is observed” and the “Safranin-O staining of GAG within cartilage” value (articular cartilage) was “Less intense safranin-O staining was observed”.
